Assay results as given in article PMC10041525, “New Dual Inhibitors of Bacterial Topoisomerases with Broad-Spectrum Antibacterial Activity and In Vivo Efficacy against Vancomycin-Intermediate Staphylococcus aureus” (Journal of Medicinal Chemistry, 2023).
In brackets after ≈: the same amount, converted by molar mass. Like-named read-outs stand apart in the source and are kept apart here.

Legend:
in vitro = in vitro ADME, mouse; settings: male, CD-1, mouse
Procedure: The PPB studies were performed by Selvita d.o.o. (Zagreb, Croatia) in mouse plasma (CD-1 male, pooled, commercially obtained from BioIVT) via equilibrium dialysis. Compounds were assayed at 5 μM (0.5% DMSO) in two replicates, and incubation time was 4 h at 37 °C. Samples were taken at 0 min and 4 h. Aliquots from both buffer and plasma compartment matrix were matched and mixed with 6 volumes of STOP solution (acetonitrile/methanol (2:1) + internal standard – diclofenac) and analyzed by LC–MS/MS. Assay controls were caffeine (low), verapamil (moderate binding), and nicardipine (very high binding), and protein contamination was checked.

E. coli ATCC 25922 = experiment: IHMA QC MIC; type: cell-based; settings: QC strain E. coli ATCC 25922, test date 2021-11-26
S. pneumoniae ATCC 49619 = experiment: IHMA QC MIC; type: cell-based
Excerpt: (§1) Supplement jm2c01905_si_004.xlsx, sheet "QC" | column: MIC [µg/mL]

H. influenzae ATCC 49766 = experiment: IHMA QC MIC; type: cell-based
Excerpt: as §1

[1] = test system: N. gonorrhoeae ATCC 49226; experiment: IHMA QC MIC; type: cell-based; settings: Neisseria gonorrhoeae, ATCC49226
Excerpt: as §1

H. influenzae ATCC 49247 = experiment: IHMA QC MIC; type: cell-based
Excerpt: as §1

[2] = test system: 100 A. baumannii strains (50 MDR, 50 non-MDR); experiment: MIC broth microdilution at IHMA Europe, panel of 100 strains; type: cell-based; settings: Acinetobacter baumannii, read-out: MIC

`Cc1[nH]c(C(=O)Nc2nc3c(N4[C@@H]5CC[C@H]4COC5)cc(C(=O)O)cc3s2)c(Cl)c1Cl` [7h, 4-((1R,5S)-3-Oxa-8-azabicyclo[3.2.1]octan-8-yl)-2-(3,4-dichloro-5-methyl-1H-pyrrole-2-carboxamido)benzo[d]thiazole-6-carboxylic Acid] showed a fraction unbound at 4 h, 5 μM (in vitro; plasma, fu, fraction unbound) of 0.009, a recovery at 4 h, 5 μM (in vitro; plasma protein binding assay) of 89% and an MIC (E. coli ATCC 25922) of 4 µg/mL (≈ 8.31 µM). The MIC (S. pneumoniae ATCC 49619; QC strain S. pneumoniae ATCC 49619, test date 2021-11-26) was 0.25 µg/mL (≈ 0.519 µM), the MIC (S. pneumoniae ATCC 49619; Streptococcus pneumoniae, ATCC49619) was 0.25 µg/mL (≈ 0.519 µM) and the MIC (H. influenzae ATCC 49766; Haemophilus influenzae, ATCC49766) was 0.25 µg/mL (≈ 0.519 µM). For the same molecule, the MIC (H. influenzae ATCC 49766; QC strain H. influenzae ATCC 49766, test date 2021-11-26) was 0.25 µg/mL (≈ 0.519 µM), the MIC [1] was ≤ 0.03 µg/mL and the MIC (H. influenzae ATCC 49247; Haemophilus influenzae, ATCC49247, QC strain H. influenzae ATCC 49247, test date 2021-11-11) was 0.25 µg/mL (≈ 0.519 µM). For the same molecule, the MIC (H. influenzae ATCC 49247; Haemophilus influenzae, ATCC49247, QC strain H. influenzae ATCC 49247, test date 2021-11-26) was 0.06 µg/mL (≈ 0.125 µM), the MIC (H. influenzae ATCC 49247; QC strain H. influenzae ATCC 49247, test date 2021-11-11) was 0.5 µg/mL (≈ 1.04 µM) and the MIC ([2]; A. baumannii IHMA 1769393, Lithuania 2018, Non-MDR) was 2 µg/mL (≈ 4.15 µM). For the same molecule, the MIC ([2]; A. baumannii IHMA 1769782, Israel 2018, MDR) was 2 µg/mL (≈ 4.15 µM), the MIC ([2]; A. baumannii IHMA 1769910, Israel 2018, Non-MDR) was 4 µg/mL (≈ 8.31 µM) and the MIC ([2]; A. baumannii IHMA 1790317, Czech Republic 2018, Non-MDR) was 2 µg/mL (≈ 4.15 µM). It also gave an MIC ([2]; A. baumannii IHMA 1790916, Romania 2018, Non-MDR) of 1 µg/mL (≈ 2.08 µM), an MIC ([2]; A. baumannii IHMA 1791877, Israel 2018, MDR) of 2 µg/mL (≈ 4.15 µM) and an MIC ([2]; A. baumannii IHMA 1792961, Jordan 2018, MDR) of 2 µg/mL (≈ 4.15 µM). It also gave an MIC ([2]; A. baumannii IHMA 1795669, Tunisia 2018, Non-MDR) of 1 µg/mL (≈ 2.08 µM), an MIC ([2]; A. baumannii IHMA 1814276, Lebanon 2018, MDR) of 2 µg/mL (≈ 4.15 µM) and an MIC ([2]; A. baumannii IHMA 1815198, Kuwait 2018, MDR) of 2 µg/mL (≈ 4.15 µM). The MIC ([2]; A. baumannii IHMA 1815856, Israel 2018, MDR) was 2 µg/mL (≈ 4.15 µM), the MIC ([2]; A. baumannii IHMA 1821468, South Africa 2018, Non-MDR) was 2 µg/mL (≈ 4.15 µM) and the MIC ([2]; A. baumannii IHMA 1829500, Georgia 2018, Non-MDR) was 2 µg/mL (≈ 4.15 µM). The MIC ([2]; A. baumannii IHMA 1830924, United Kingdom 2018, Non-MDR) was 4 µg/mL (≈ 8.31 µM), the MIC ([2]; A. baumannii IHMA 1849819, Kuwait 2018, MDR) was 4 µg/mL (≈ 8.31 µM) and the MIC ([2]; A. baumannii IHMA 1849829, Kuwait 2018, Non-MDR) was 4 µg/mL (≈ 8.31 µM). For the same molecule, the MIC ([2]; A. baumannii IHMA 1857118, Slovenia 2018, Non-MDR) was 4 µg/mL (≈ 8.31 µM), the MIC ([2]; A. baumannii IHMA 1863631, France 2018, Non-MDR) was 2 µg/mL (≈ 4.15 µM) and the MIC ([2]; A. baumannii IHMA 1870054, United States 2018, Non-MDR) was 2 µg/mL (≈ 4.15 µM). It also gave an MIC ([2]; A. baumannii IHMA 1884428, Italy 2018, Non-MDR) of 4 µg/mL (≈ 8.31 µM), an MIC ([2]; A. baumannii IHMA 1884990, Germany 2018, Non-MDR) of 1 µg/mL (≈ 2.08 µM) and an MIC ([2]; A. baumannii IHMA 1900538, Turkey 2018, Non-MDR) of 4 µg/mL (≈ 8.31 µM). The MIC ([2]; A. baumannii IHMA 1913773, Kenya 2018, Non-MDR) was 2 µg/mL (≈ 4.15 µM), the MIC ([2]; A. baumannii IHMA 1926285, Qatar 2018, Non-MDR) was 2 µg/mL (≈ 4.15 µM) and the MIC ([2]; A. baumannii IHMA 1926288, Qatar 2018, MDR) was 1 µg/mL (≈ 2.08 µM). It also gave an MIC ([2]; A. baumannii IHMA 1957343, Portugal 2019, Non-MDR) of 4 µg/mL (≈ 8.31 µM), an MIC ([2]; A. baumannii IHMA 1963732, Turkey 2019, MDR) of 2 µg/mL (≈ 4.15 µM) and an MIC ([2]; A. baumannii IHMA 1967860, Spain 2019, Non-MDR) of 8 µg/mL (≈ 16.6 µM). The MIC ([2]; A. baumannii IHMA 1971673, Latvia 2019, MDR) was 2 µg/mL (≈ 4.15 µM), the MIC ([2]; A. baumannii IHMA 1975075, Israel 2019, Non-MDR) was 2 µg/mL (≈ 4.15 µM) and the MIC ([2]; A. baumannii IHMA 1977077, Kuwait 2019, Non-MDR) was 4 µg/mL (≈ 8.31 µM). For the same molecule, the MIC ([2]; A. baumannii IHMA 1983151, Greece 2019, MDR) was 2 µg/mL (≈ 4.15 µM), the MIC ([2]; A. baumannii IHMA 1984665, Lithuania 2019, MDR) was 2 µg/mL (≈ 4.15 µM) and the MIC ([2]; A. baumannii IHMA 1986678, Turkey 2019, Non-MDR) was 4 µg/mL (≈ 8.31 µM). The MIC ([2]; A. baumannii IHMA 1986738, Turkey 2019, MDR) was 2 µg/mL (≈ 4.15 µM), the MIC ([2]; A. baumannii IHMA 1987162, Croatia 2019, MDR) was 2 µg/mL (≈ 4.15 µM) and the MIC ([2]; A. baumannii IHMA 1993615, Turkey 2019, MDR) was 1 µg/mL (≈ 2.08 µM). It also gave an MIC ([2]; A. baumannii IHMA 1994284, Italy 2019, MDR) of 2 µg/mL (≈ 4.15 µM), an MIC ([2]; A. baumannii IHMA 1995161, Czech Republic 2019, Non-MDR) of 2 µg/mL (≈ 4.15 µM) and an MIC ([2]; A. baumannii IHMA 1997936, Morocco 2019, Non-MDR) of 2 µg/mL (≈ 4.15 µM). For the same molecule, the MIC ([2]; A. baumannii IHMA 1999178, Belgium 2019, Non-MDR) was 2 µg/mL (≈ 4.15 µM), the MIC ([2]; A. baumannii IHMA 2003279, Turkey 2019, MDR) was 4 µg/mL (≈ 8.31 µM) and the MIC ([2]; A. baumannii IHMA 2014367, Jordan 2019, Non-MDR) was 1 µg/mL (≈ 2.08 µM). For the same molecule, the MIC ([2]; A. baumannii IHMA 2014931, South Africa 2019, Non-MDR) was 4 µg/mL (≈ 8.31 µM), the MIC ([2]; A. baumannii IHMA 2019315, Romania 2019, Non-MDR) was 4 µg/mL (≈ 8.31 µM) and the MIC ([2]; A. baumannii IHMA 2020360, Croatia 2019, MDR) was 2 µg/mL (≈ 4.15 µM). The MIC ([2]; A. baumannii IHMA 2031511, Greece 2019, Non-MDR) was 1 µg/mL (≈ 2.08 µM), the MIC ([2]; A. baumannii IHMA 2031524, Greece 2019, MDR) was 2 µg/mL (≈ 4.15 µM) and the MIC ([2]; A. baumannii IHMA 2034657, Tunisia 2019, Non-MDR) was 4 µg/mL (≈ 8.31 µM). It also gave an MIC ([2]; A. baumannii IHMA 2035089, Serbia 2019, MDR) of 2 µg/mL (≈ 4.15 µM), an MIC ([2]; A. baumannii IHMA 2035134, Serbia 2019, Non-MDR) of 2 µg/mL (≈ 4.15 µM) and an MIC ([2]; A. baumannii IHMA 2038976, Hungary 2019, MDR) of 2 µg/mL (≈ 4.15 µM).
